Results from article PMC9300104 (2021).

How the values were obtained:
[1] = tested on: Gdn49 P1mut (A14G, GG) (RNA, riboswitch) GGUUUGCAGGACGGCCUGCAAACGCCUCUUUUCACCGGGGACGGCCCCA; experiment: 1H-1D NMR titration, U17 imino, Hill fit; settings: 5 mM Mg2+, 50 mM KCl; 25 mM potassium phosphate, pH 6.2, room temperature, 50 μM RNA, Hill n 1.35
[2] = tested on: Gdn13 wt (P2 wild-type, ACGG loop) (RNA, riboswitch) GGGGACGGCCCCA; experiment: 1H-1D NMR titration; settings: 5 mM Mg2+, 50 mM KCl; 25 mM potassium phosphate, pH 6.2, room temperature; KD not detected; up to 8 mM Gdm+ (Table 2)
[3] = tested on: Gdn49 P2mut (G44A, AA) (RNA, riboswitch) GGUUUGCAGGACGACCUGCAAACGCCUCUUUUCACCGGGGACGACCCCA; experiment: 1H-1D NMR titration, U17 imino, Hill fit; settings: 5 mM Mg2+, 50 mM KCl; 25 mM potassium phosphate, pH 6.2, room temperature, 50 μM RNA, Hill n 1.01; two bound signals summed
[4] = tested on: Gdn23 wt (P1 wild-type, ACGA loop) (RNA, riboswitch) GGUUUGCAGGACGACCUGCAAAC; experiment: 1H-1D NMR titration, U17 imino, Hill fit; settings: 5 mM Mg2+, 50 mM KCl; 25 mM potassium phosphate, pH 6.2, room temperature, 50 μM RNA, Hill n 1.16
[5] = tested on: Gdn49 wt (aptamer wild-type, AG) (RNA, riboswitch) GGUUUGCAGGACGACCUGCAAACGCCUCUUUUCACCGGGGACGGCCCCA; experiment: 1H-1D NMR titration, U17 imino, Hill fit; settings: 5 mM Mg2+, 50 mM KCl; 25 mM potassium phosphate, pH 6.2, room temperature, 50 μM RNA, Hill n 1.10; no binding without Mg2+
[6] = tested on: Gdn49 P1P2mut (A14G, G44A, GA) (RNA, riboswitch) GGUUUGCAGGACGGCCUGCAAACGCCUCUUUUCACCGGGGACGACCCCA; experiment: 1H-1D NMR titration, U17 imino, Hill fit; settings: 5 mM Mg2+, 50 mM KCl; 25 mM potassium phosphate, pH 6.2, room temperature, 50 μM RNA, Hill n 1.38
[7] = tested on: Gdn13 G44A (RNA, riboswitch) GGGGACGACCCCA; experiment: 1H-1D NMR, chemical shift perturbation; settings: 5 mM Mg2+, 50 mM KCl; 25 mM potassium phosphate, pH 6.2, room temperature, 20 μM RNA, 1 mM Gdm+

- KD [1]: 264.3 ± 27.8 µM
- binding [2]: no
- KD [3]: 58.9 ± 8.1 µM
- KD [4]: 197.4 ± 8.8 µM
- KD [5]: 133.4 ± 3.9 µM
- KD [6]: 165.0 ± 14.3 µM
- binding [7]: yes
Compound: N=C(N)N
